Measured values published in patent publication US9428504B2, “7-hydroxy-spiropipiperidine indolinyl antagonists of P2Y1 receptor” (BRISTOL-MYERS SQUIBB COMPANY, priority 2012, dated 2016).
Where a name gives a salt, the structure may show the parent alone.

Columns and labels:
[1] = target: cloned human P2Y1 receptors (Homo sapiens (Human), UniProt P47900); experiment: Binding Assay B: Scintillation Proximity Assay (SPA) for P2Y1 binding; conditions: SPA, [33P] 2MeS-ADP displacement; read-out: P2Y1 Ki (nM) using binding assay B
Protocol: A SPA membrane binding assay was used to identify inhibitors of [^33P] […] Binding reactions were performed in 384-well OptiPlates (PerkinElmer Life Sciences, Cat #6007299) in a volume of 50 μL containing ˜15 fmol of P2Y1 receptor (1.7 μg of total protein), 0.3 nM [^33P] […] Reactions were allowed to proceed to completion at room temperature for 1 hour followed by centrifugation of the plate for 5 min. About 40 μL of the aqueous solution was aspirated. Plates were sealed and the [^33P]

[2] = system: human platelet rich plasma (PRP); experiment: ADP induced platelet aggregation assay; conditions: Homo sapiens, Platelet, read-out: PA IC50 (μM) @ 10 μM ADP, platelet aggregation induced by 10 μM ADP, human PRP
Protocol: The ability of P2Y1 antagonists covered in the present invention to inhibit platelet aggregation induced by 10 μM ADP was tested using human platelet rich plasma (PRP) as described in Platelet Protocols: Research and Clinical Laboratory Procedures (White, M. M. et al., Academic Press (1999)). Human blood was collected in 30 μM (final concentration in blood) argatroban (GSK) as the anticoagulant at a ratio of 1 ml per 9 ml of blood. The PRP was isolated by centrifugation at 170 g for 12 minutes. The platelet poor plasma (PPP) was used as the blank for optical aggregometry. Compounds of the present invention in DMSO solution was preincubated with 250 μl PRP at 37° C. for 1 minute with stirring speed of 1000 rpm. Aggregation was initiated by addition of 2.5 μl of 1 mM ADP (Chrono-log, Havertown, Pa.) for a final ADP concentration of 10 μM. Platelet aggregation was monitored using Optical Aggregometer (Chrono-log, Havertown, Pa.) and the area under the curve (AUC) at 5 minute was measured. IC50 was calculated using vehicle control as 0% inhibition.

cloned human P2Y1 receptors, sequence (P47900 whole entry): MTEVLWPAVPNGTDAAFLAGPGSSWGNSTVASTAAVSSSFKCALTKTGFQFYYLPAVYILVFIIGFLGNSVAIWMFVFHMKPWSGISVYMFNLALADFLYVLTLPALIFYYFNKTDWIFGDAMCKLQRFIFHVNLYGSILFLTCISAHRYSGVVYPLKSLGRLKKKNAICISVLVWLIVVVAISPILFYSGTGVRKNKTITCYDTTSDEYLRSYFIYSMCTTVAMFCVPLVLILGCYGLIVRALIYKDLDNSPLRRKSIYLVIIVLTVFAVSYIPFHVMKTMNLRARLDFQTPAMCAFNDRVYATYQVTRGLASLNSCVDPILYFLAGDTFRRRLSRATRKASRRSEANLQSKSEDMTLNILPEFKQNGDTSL

| Compound | Ki [1] [nM] | IC50 [2] [µM] |
| --- | --- | --- |
| CC(C)(C)CN1CCC2(CC1)CN(c1ccccc1NC(=O)Nc1ccc(C(F)(F)F)cc1)c1c(O)ccc(C(F)(F)F)c12 [Example 22, 1-(2-(7-Hydorxy-1′-neopentyl-4-(trifluoromethyl)spiro[indoline-3,4′-piperidine]-1-yl)phenyl)-3-(4-(trifluoromethyl)phenyl)urea] | 4.4 | 0.2 |
| CN(C)S(=O)(=O)c1ccc(O)c2c1C1(CCN(CC(C)(C)C)CC1)CN2c1ccccc1NC(=O)Nc1ccc(OC(F)(F)F)cc1 [Example 89, 7-Hydroxy-N,N-dimethyl-1′-neopentyl-1-(2-(3-(4-(trifluoromethoxy)phenyl)ureido)phenyl)spiro[indoline-3,4′-piperidine]-4-sulfonamide] | 5.3 | 0.4 |
| CC(C)C(=O)N1CCc2nc(NC(=O)Nc3ccccc3N3CC4(CCN(CC(C)(C)C)CC4)c4c(Cl)ccc(O)c43)sc2C1 [Example 73, 1-(2-(4-Chloro-7-hydroxy-1′-neopentylspiro[indoline-3,4′-piperidine]-1-yl)phenyl)-3-(5-isobutyryl-4,5,6,7-tetrahydrothiazolo [5,4-c]pyriidn-2-yl)urea] | 17.9 | 0.5 |
| CC(C)CN1CCC2(CC1)CN(c1ccccc1NC(=O)Nc1nc3ccc(Cl)cc3s1)c1c(O)ccc(C(F)(F)F)c12 [Example 30, 1-(6-Chlorobenzo[d]thiazol-2-yl)-3-(2-(7-hydroxy-1′-isobutyl-4-(trifluoromethyl)spiro[indoline-3,4′-piperidine]-1-yl)phenyl)urea] | 14.5 | 0.1 |
| CC(C)(C)CN1CCC2(CC1)CN(c1ccccc1NC(=O)NC1CCC(C(C)(C)C)CC1)c1c(O)ccc(C(F)(F)F)c12 (centres unmarked) [Example 27, 1-(4-tert-Butylcyclohexyl)-3-(2-(7-hydroxy-1′-neopentyl-4-(trifluoromethyl)spiro[indoline-3,4′-piperidine]-1-yl)phenyl)urea] | 9.6 | 0.7 |
| CC(C)(C)CN1CCC2(CC1)CN(c1ccccc1NC(=O)Nc1csc(Cl)n1)c1c(O)ccc(Cl)c12 [Example 61, 1-(2-(4-Chloro-7-hydroxy-1′-neopentylspiro[indoline-3,4′-piperidin]-1-yl)phenyl)-3-(2-chlorothiazol-4-yl)urea] | 5.8 | 0.2 |
| CC(C)(C)CN1CCC2(CC1)CN(c1ccccc1NC(=O)Nc1nccs1)c1c(O)ccc(C(F)(F)F)c12 [Example 29, 1-(2-(7-Hydroxy-1′-neopentyl-4-(trifluoromethyl)spiro[indoline-3,4′-piperidine]-1-yl)phenyl)-3-(thiazol-2-yl)urea] | 6.4 | 0.4 |
| CC(C)(C)CN1CCC2(CC1)CN(c1ccccc1NC(=O)Nc1ccc(OC(F)(F)F)cc1)c1c(O)ccc(Cl)c12 [Example 59, 1-(2-(4-Chloro-7-hydroxy-1′-neopentylspiro[indoline-3,4′-piperidine]-1-yl)phenyl)-3-(4-(trifluoromethoxy)phenyl)urea] | 7.2 | 0.4 |
| CC(C)(C)CN1CCC2(CC1)CN(c1ccccc1NC(=O)Nc1ccc(OC(F)(F)F)cc1)c1c(O)ccc(-c3nc4cc(F)ccc4s3)c12 [Example 135, 1-(2-(4-(5-Fluorobenzo[d]thiazol-2-yl)-7-hydroxy-1′-neopentylspiro[indoline-3,4′-piperidin]-1-yl)phenyl)-3-(4-(trifluoromethoxy)phenyl)urea] | 21.7 | 0.6 |
| CC(C)(C)CN1CCC2(CC1)CN(c1ccccc1NC(=O)Nc1csc(Cl)c1)c1c(O)ccc(C(F)(F)F)c12 [Example 26, 1-(5-Chlorothiophen-3-yl)-3-(2-(7-hydroxy-1′-neopentyl-4-(trifluoromethyl)spiro[indoline-3,4′-piperidine]-1-yl)phenyl)urea] | 7.3 | 0.2 |
| CC(C)(C)CN1CCC2(CC1)CN(c1ccccc1NC(=O)Nc1ccc(OC(F)(F)F)cc1)c1c(O)ccc(C#N)c12 [Example 8, 1-(2-(4-Cyano-7-hydroxy-1′-neopentylspiro[indoline-3,4′-piperidine]-1-yl)phenyl)-3-(4-(trifluoromethoxy)phenyl)urea] | 5.7 | 1.1 |
| CC(C)(C)CN1CCC2(CC1)CN(c1ccccc1NC(=O)Nc1nc3c(s1)CCCC3)c1c(O)ccc(Cl)c12 [Example 45, 1-(2-(4-Chloro-7-hydroxy-1′-neopentylspiro[indoline-3,4′-piperidine]-1-yl)phenyl)-3-(4,5,6,7-tetrahydrobenzo[d]thiazol-2-yl)urea, TFA] | 9.5 | 0.3 |
| CC(C)(C)CN1CCC2(CC1)CN(c1ccccc1NC(=O)Nc1csc(Cl)n1)c1c(O)ccc(C#N)c12 [Example 85, l-(2-Chlorothiazol-4-yl)-3-(2-(4-cyano-7-hydroxy-1′-neopentylspiro[indoline-3,4′-piperidine]-1-yl)phenyl)urea] | 3.7 | 0.4 |
| CC(C)(C)CN1CCC2(CC1)CN(c1ccccc1NC(=O)Nc1nc3ccc(F)cc3s1)c1c(O)ccc(F)c12 [Example 32, 1-(2-(4-Fluoro-7-hydroxy-1′-neopentylspiro[indoline-3,4′-piperidine]-1-yl)phenyl)-3-(6-fluorobenzo[d]thiazol-2-yl)urea] | 7.4 | 0.3 |
| CC(C)(C)CN1CCC2(CC1)CN(c1ccccc1NC(=O)Nc1nc3ccc(F)cc3s1)c1c(O)cc(F)c(-c3ccc(Cl)cc3)c12 [Example 165, 1-(2-(4-(4-Chlorophenyl)-5-fluoro-7-hydroxy-1′-neopentylspiro[indoline-3,4′-piperidin]-1-yl)phenyl)-3-(6-fluorobenzo[d]thiazol-2-yl)urea] | 56.2 | 0.3 |
| CC(C)(C)CN1CCC2(CC1)CN(c1ccccc1NC(=O)Nc1ccc(C(F)(F)F)cc1)c1c(O)ccc(F)c12 [Example 37, 1-(2-(4-Fluoro-7-hydroxy-1′-neopentylspiro[indoline-3,4′-piperidine]-1-yl)phenyl)-3-(4-(trifluoromethyl)phenyl)urea] | 7.2 | 1 |
| CC(C)(C)CN1CCC2(CC1)CN(c1ccccc1NC(=O)Nc1csc(C(F)(F)F)n1)c1c(O)cc(F)c(-c3ccc(Cl)cc3)c12 [Example 158, 1-(2-(4-(4-Chlorophenyl)-5-fluoro-7-hydroxy-1′-neopentylspiro[indoline-3,4′-piperidin]-1-yl)phenyl)-3-(2-(trifluoromethyl)thiazol-4-yl)urea] | 15.4 | 0.3 |
| CC(C)(C)CN1CCC2(CC1)CN(c1ccccc1NC(=O)Nc1nc3ccc(F)cc3s1)c1c(O)ccc(C#N)c12 [Example 81, 1-(2-(4-Cyano-7-hydroxy-1′-neopentylspiro[indoline-3,4′-piperidine]-l-yl)phenyl)-3-(6-fluorobenzo[d]thiazol-2-yl) urea, trifluoroacetic acid salt] | 5 | 0.6 |
| CC(C)(C)CN1CCC2(CC1)CN(c1ccccc1NC(=O)Nc1ccc(OC(F)(F)F)cc1)c1c(O)c(F)cc(-c3ccc(Cl)cc3)c12 [Example 156, 1-(2-(4-(4-Chlorophenyl)-6-fluoro-7-hydroxy-1′-neopentylspiro[indoline-3,4′-piperidin]-1-yl)phenyl)-3-(4-(trifluoromethoxy)phenyl)urea] | 20.2 | 0.2 |
| CC(C)(C)CN1CCC2(CC1)CN(c1ccccc1NC(=O)Nc1nc3ccc(F)cc3s1)c1c(O)ccc(C(F)(F)F)c12 [Example 3, 1-(6-Fluorobenzo[d]thiazol-2-yl)-3-(2-(7-hydroxy-1′-neopentyl-4-(trifluoromethyl)spiro[indoline-3,4′-piperidine]-1-yl)phenyl)urea] | 8.9 | 0.1 |
| CC(C)(C)CN1CCC2(CC1)CN(c1ccccc1NC(=O)Nc1csc(Cl)n1)c1c(O)ccc(-c3nc4ccc(Br)cc4s3)c12 [Example 119, 1-(2-(4-(6-Bromobenzo[d]thiazol-2-yl)-7-hydroxy-1′-neopentylspiro[indoline-3,4′-piperidin]-1-yl)phenyl)-3-(2-chlorothiazol-4-yl)urea] | 18.4 | 0.3 |
| CC(C)(C)CN1CCC2(CC1)CN(c1ccccc1NC(=O)Nc1nc3ccc(Cl)nc3s1)c1c(O)cc(F)c(-c3ccc(F)cc3)c12 [Example 152] | 10.2 | 0.2 |
| CC(C)(C)CN1CCC2(CC1)CN(c1ccccc1NC(=O)Nc1csc(C(F)(F)F)n1)c1c(O)ccc(-c3nc4ccc(F)cc4s3)c12 [Example 132, 1-(2-(4-(6-Fluorobenzo[d]thiazol-2-yl)-7-hydroxy-1′-neopentylspiro[indoline-3,4′-piperidin]-1-yl)phenyl)-3-(2-(trifluoromethyl)thiazol-4-yl)urea] | 12.4 | 0.7 |
| CC(C)(C)CN1CCC2(CC1)CN(c1ccccc1NC(=O)Nc1nc3ccc(F)cc3s1)c1c(O)ccc(-c3nc4c(Cl)cccc4s3)c12 [Example 116, 1-(2-(4-(4-Chlorobenzo[d]thiazol-2-yl)-7-hydroxy-1′-neopentylspiro[indoline-3,4′-piperidin]-1-yl)phenyl)-3-(6-fluorobenzo[b]thiazol-2-yl)urea] | 36.2 | 0.6 |
| CC(C)(C)CN1CCC2(CC1)CN(c1ccccc1NC(=O)Nc1nc3ccc(Cl)cc3s1)c1c(O)ccc(C#N)c12 [Example 83, l-(6-Chlorobenzo[d]thiazol-2-yl)-3-(2-(4-cyano-7-hydroxy-1′-neopentylspiro[indoline-3,4′-piperidine]-1-yl)phenyl) urea, trifluoroacetic acid salt] | 5.7 | 0.2 |
